Values after ≈ are worked out from the molar mass of the structure shown. Numbered stars: 1 amine (or outer) side, 2 acyl side, 3 side chain; on linkers, the order of the positions; unused ones are H or OH. Square brackets hold non-standard residues; d marks the D form. Side chains are listed from the residue outwards. Peptide text beside a SMILES is read from it. * marks the point of attachment. C18 diacid = O=C(O)CCCCCCCCCCCCCCCCC(=O)*; γGlu = O=C(O)[C@H](CCC(=O)[*:2])N[*:1]; dIva = CC[C@@](C)(N)C(=O)O; AEEA = NCCOCCOCC(=O)O; Aib = CC(C)(N)C(=O)O
Legend:
[1] = Solubility assessment (UHPLC-UV of supernatant, target 10 mg/ml); type: physicochemical; conditions: pH 7.4, Soluble amount
Experimental: Prior to the solubility measurement of a peptide batch, its purity was determined through UHPLC/MS.
Therefore, solutions from solid samples were prepared in a buffer system with a concentration of 10 mg/ml compound based on the previously determined % purity: • Solubility buffer system A) 100 mM phosphate buffer pH 7.4 • Solubility buffer system B) 8 mM phosphate buffer pH 7.4, 14 mg/ml propylene glycol, 5.5 mg/ml phenol • Solubility buffer system C) 100 mM phosphate buffer pH 7.4, 2.7 mg/ml m-cresol
UHPLC-UV was performed after 1 h of gentle agitation and storage at 5° C. overnight (24 h) from the supernatant, which was obtained after 15 min of centrifugation at 2500 RCF (relative centrifugal acceleration).
The different UV extinction coefficients of sample and reference peptide were calculated based on the different amino acid sequences and considered in the concentration calculation.
The analytical method used was Analytical UHPLC Method A.
Peptide samples were prepared in solubility buffer system A or C and solubility was assessed as described in Methods.

[2] = target: human GLP-1 receptor (hGLP-1R) (Homo sapiens, UniProt P43220); assay: In vitro cellular cAMP assay for GLP-1 receptor efficacy (HEK-293 cell line over-expressing receptor); type: cell-based; conditions: HEK-293, 0.1% BSA
human GLP-1 receptor (hGLP-1R), sequence (P43220 24-463): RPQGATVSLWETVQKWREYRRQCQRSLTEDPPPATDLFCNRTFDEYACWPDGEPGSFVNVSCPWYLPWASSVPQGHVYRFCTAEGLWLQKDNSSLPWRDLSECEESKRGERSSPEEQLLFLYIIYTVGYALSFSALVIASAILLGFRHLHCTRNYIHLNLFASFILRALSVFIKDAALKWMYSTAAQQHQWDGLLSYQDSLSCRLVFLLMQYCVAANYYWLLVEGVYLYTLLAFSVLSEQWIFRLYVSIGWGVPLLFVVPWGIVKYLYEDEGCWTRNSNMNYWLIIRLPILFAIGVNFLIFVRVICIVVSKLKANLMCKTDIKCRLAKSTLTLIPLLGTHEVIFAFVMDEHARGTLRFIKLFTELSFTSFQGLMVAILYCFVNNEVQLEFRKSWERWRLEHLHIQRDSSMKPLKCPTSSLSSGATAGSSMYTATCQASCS

[3] = target: T1, human GIP receptor (hGIPR) (Homo sapiens, UniProt P48546); assay: Binding assay, displacement of [125I]GIP from HEK-293 membranes over-expressing GIPR (SPA); conditions: [125I]GIP displacement
T1 sequence (P48546 22-466): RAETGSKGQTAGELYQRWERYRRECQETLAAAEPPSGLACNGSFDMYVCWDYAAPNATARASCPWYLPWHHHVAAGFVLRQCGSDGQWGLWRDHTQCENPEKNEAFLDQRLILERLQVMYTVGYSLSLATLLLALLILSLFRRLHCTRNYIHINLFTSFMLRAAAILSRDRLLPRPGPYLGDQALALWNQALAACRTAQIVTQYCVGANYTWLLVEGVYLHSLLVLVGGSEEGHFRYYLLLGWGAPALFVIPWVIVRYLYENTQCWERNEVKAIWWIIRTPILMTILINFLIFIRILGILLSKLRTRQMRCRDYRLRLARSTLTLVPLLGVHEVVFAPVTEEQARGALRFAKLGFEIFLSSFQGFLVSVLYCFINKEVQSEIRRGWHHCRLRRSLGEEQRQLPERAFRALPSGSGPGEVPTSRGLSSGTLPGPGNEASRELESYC
Experimental: (1) Preparation of Membranes from HEK-293 Cells Over-Expressing GIPR or GLP-1R
HEK-293 cells recombinantly over-expressing GIPR or GLP-1R were grown to 50% confluency, washed with warm 1×PBS (Gibco) and detached in HEPES/EDTA-buffer (100 mM HEPES pH 7.5, 5 mM EDTA). Cells were harvested by centrifugation at 4° C. and 3000×g and the pellets were stored at −80° C. until further processing.
After thawing on ice, pellets were resuspended in HEPES/EDTA-buffer and homogenized on ice for 1 min using Ultra-Turray T25. After subsequent sonification the cell debris was removed by centrifugation at 1000×g and 4° C. Supernatants were then ultra-centrifuged at 100000×g and 4° C. under vacuum for 30 min. Pellets were resuspended in HEPES/EDTA/NaCl-buffer (20 mM HEPES, 1 mM EDTA, 150 mM NaCl; add 1 Complete Mini Protease inhibitor cocktail to 10 ml buffer) and protein content was determined via BCA-Protein assay.
(2) Measurement of Binding Activity of Test Compounds to Human GIPR or GLP-1R

human GIP receptor = target: T2, human GIP receptor (Homo sapiens, UniProt P48546); assay: In vitro cellular cAMP assay for GIP receptor efficacy (human adipocytes); type: cell-based
T2 construct: human adipocytes endogenously expressing the human GIP receptor; host or cells: human preadipocytes (Lonza) differentiated to adipocytes
T2 sequence (P48546 22-466): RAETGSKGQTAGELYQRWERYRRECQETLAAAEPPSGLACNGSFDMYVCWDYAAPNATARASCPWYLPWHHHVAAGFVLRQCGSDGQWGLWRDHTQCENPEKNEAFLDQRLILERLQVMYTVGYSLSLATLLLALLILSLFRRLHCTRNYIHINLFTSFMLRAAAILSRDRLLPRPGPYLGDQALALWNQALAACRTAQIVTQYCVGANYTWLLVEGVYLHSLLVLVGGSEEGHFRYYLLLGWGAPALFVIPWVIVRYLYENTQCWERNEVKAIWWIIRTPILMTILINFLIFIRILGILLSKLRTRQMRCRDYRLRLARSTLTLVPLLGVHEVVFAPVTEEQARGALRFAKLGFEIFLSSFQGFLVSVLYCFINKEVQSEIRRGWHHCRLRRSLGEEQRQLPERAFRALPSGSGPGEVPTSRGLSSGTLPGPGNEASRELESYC
Experimental: For this, one vial of human preadipocytes (˜10^6 cells; Lonza) was thawed in a T-75 cell culture dish. The cells were cultivated at 37° C., 5% CO2, 95% humidity in Preadipocyte Growth Medium with Supplement Mix from Promo Cell.
After 3 days, the cells were washed with PBS and 1.5 ml Trypsin, incubated for 4 min, then resuspended in medium, centrifugated for 10 min @ 300 rcf RT, resuspended again and distributed to four T-75 cell culture dishes. Again, the cells were cultivated at 37° C., 5% CO2, 95% humidity.
After 5 days, the cells were washed with PBS and 1.5 ml Trypsin, incubated for 4 min, then resuspended in medium, centrifugated for 10 min @ 300 rcf RT, resuspended again and sawn in T-75 dishes (2.5×10^6 cells per dish) in 15 ml Differentiation medium each.
The differentiation medium had the following composition: DMEM (Gibco), Ham's F10 (Gibco), 15 mM HEPES (Gibco), 3% FCS (PAA), 33 μM biotin (Sigma-Aldrich), 17 μM Pantothenate (Sigma-Aldrich), 0.1 μM human insulin (Sigma-Aldrich), 1 μM dexamethason (Sigma-Aldrich), 0.1 μM PPARgamma agonist (#R2408, Sigma-Aldrich), 0.6×Anti-Anti (#15240, ThermoFisher), 200 μM IBMX (AppliChem), and 0.01 μM L-thyroxine (Sigma-Aldrich).
After 6 days of differentiation, 5000 cells per well were dispensed on a 96-well plate (#CLS3694 from Corning®, Sigma-Aldrich). For measurement of cAMP generation, 25 μL of test compound was added to each well of the 96-well plate, followed by incubation for 30 min at room temperature.
The cAMP generated following test compound stimulation was determined using a kit from Cisbio Corp. based on HTRF (Homogenous Time Resolved Fluorescence). The cAMP assay was performed according to manufacturer's instructions (Cisbio).
The cAMP content of cells was determined using a kit from Cisbio Corp. based on HTRF (Homogenous Time Resolved Fluorescence).
After addition of HTRF reagents diluted in lysis buffer (kit components), the plates were incubated for 1 h, followed by measurement of the fluorescence ratio at 665/620 nm.

Question: For `CC[C@H](C)[C@H](NC(=O)[C@H](CCCNC(=N)N)NC(=O)[C@H](CC(=O)O)NC(=O)[C@H](CCCCNC(=O)COCCOCCNC(=O)COCCOCCNC(=O)CC[C@H](NC(=O)CCCCCCCCCCCCCCCCC(=O)O)C(=O)O)NC(=O)C(C)(C)NC(=O)[C@@H](NC(=O)[C@H](CO)NC(=O)[C@H](CC(C)C)NC(=O)[C@H](CC(=O)O)NC(=O)[C@H](CO)NC(=O)[C@@H](NC(=O)[C@@](C)(CC)NC(=O)[C@@H](NC(=O)CNC(=O)[C@H](CCC(=O)O)NC(=O)C(C)(C)NC(=O)[C@@H](N)Cc1ccc(O)cc1)[C@@H](C)O)[C@@H](C)CC)[C@@H](C)CC)C(=O)N[C@@H](Cc1c[nH]cn1)C(=O)N[C@@H](CCC(N)=O)C(=O)NC(C)(C)C(=O)N[C@@H](CCC(=O)O)C(=O)N[C@@H](Cc1ccccc1)C(=O)N[C@H](C(=O)N[C@@H](CCC(=O)O)C(=O)N[C@@H](Cc1c[nH]c2ccccc12)C(=O)N[C@@H](CC(C)C)C(=O)N[C@@H](CC(C)C)C(=O)N[C@@H](C)C(=O)N[C@@H](CCC(N)=O)C(=O)NCC(=O)N1CCC[C@H]1C(=O)N[C@@H](CO)C(=O)N[C@@H](CO)C(=O)NCC(=O)N[C@@H](C)C(=O)N1CCC[C@H]1C(=O)N1CCC[C@H]1C(=O)N1CCC[C@H]1C(=O)N[C@@H](CO)C(N)=O)[C@@H](C)CC` [SEQ ID NO: 23, H2N-Y-Aib-E-G-T-Iva-I-S-D-L-S-I-Aib-K[{AEEA}2-gGlu-C18OH]-D-R-I-H-Q-Aib-E-F-I-E-W-L-L-A-Q-G-P-S-S-G-A-P-P-P-S-NH2] (H-Y[Aib]EGT[dIva]ISDLSI[Aib]K([AEEA-AEEA-γGlu-C18 diacid])DRIHQ[Aib]EFIEWLLAQGPSSGAPPPS-NH2), which solubility [1] is on record?
Answer: 6500 µg/mL (≈ 1320 µM)

Question: What about the EC50 [2] of the same compound?
Answer: > 10 nM

Question: And the IC50 [3]?
Answer: 0.2 nM

Question: And the EC50 (human GIP receptor; read-out: hGIPR EC50)?
Answer: 0.2 nM

Question: What about the Emax (human GIP receptor; read-out: hGIPR Emax) of the same compound?
Answer: 91%

From patent US20240360194A1, “New Peptides as Potent and Selective GIP Receptor Agonists” (Sanofi, priority 2021, published 2024)
